Drawing on PMC3268748, “A novel cold-active β-D-galactosidase from the Paracoccus sp. 32d - gene cloning, purification and characterization” (Microbial Cell Factories, 2011), this text covers activity for two compounds.

Like-named read-outs stand apart in the source and are kept apart here.

For this test, the target named is T1, BgaL; Paracoccus sp. 32d β-D-galactosidase (Paracoccus sp. 32d, UniProt D1LZK0).
T1 construct: E. coli LMG194, pBAD/Myc-His A with native stop codon (no tag), ion exchange purified; homodimer 161 kDa; GH2
T1 sequence (D1LZK0 1-731): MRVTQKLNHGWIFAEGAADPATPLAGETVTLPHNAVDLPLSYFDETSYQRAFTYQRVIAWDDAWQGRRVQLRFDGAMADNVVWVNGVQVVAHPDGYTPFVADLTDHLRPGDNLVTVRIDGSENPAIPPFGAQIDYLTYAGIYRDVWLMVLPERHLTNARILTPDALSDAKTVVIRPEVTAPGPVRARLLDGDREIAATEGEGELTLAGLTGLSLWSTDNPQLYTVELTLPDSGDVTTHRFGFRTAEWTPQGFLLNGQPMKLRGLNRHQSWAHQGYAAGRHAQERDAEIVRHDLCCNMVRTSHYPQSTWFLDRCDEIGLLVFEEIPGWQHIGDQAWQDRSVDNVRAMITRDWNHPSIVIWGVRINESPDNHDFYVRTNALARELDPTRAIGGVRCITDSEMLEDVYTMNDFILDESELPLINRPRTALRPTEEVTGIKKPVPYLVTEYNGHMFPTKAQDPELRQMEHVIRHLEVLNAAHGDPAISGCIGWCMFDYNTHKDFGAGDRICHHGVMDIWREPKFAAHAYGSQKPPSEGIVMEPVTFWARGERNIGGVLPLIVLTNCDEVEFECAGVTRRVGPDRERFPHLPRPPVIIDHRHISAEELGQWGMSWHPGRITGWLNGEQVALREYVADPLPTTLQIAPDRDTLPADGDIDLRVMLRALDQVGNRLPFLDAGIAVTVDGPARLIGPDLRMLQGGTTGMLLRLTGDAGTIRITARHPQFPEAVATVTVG
Description: relative activity with added sugar. The format is biochemical.

Turning to `OC[C@H]1OC(O)[C@H](O)[C@@H](O)[C@H]1O` (some centres unmarked) [galactose], for the setting “read-out: Relative activity (%) / Galactose”, the activity at 100000 µM was determined as 52 ± 1%.
On to `OC[C@H]1OC(O)[C@H](O)[C@@H](O)[C@@H]1O` (some centres unmarked) [glucose], for which the activity at 100000 µM (read-out: Relative activity (%) / Glucose) is 38 ± 2%.
